System: HH patients
Test: Phase 2 open-label dose-finding study in hereditary hemochromatosis patients
Type: in vivo, human
Description: A clinical efficacy study was conducted in HH patients. Subjects received subcutaneous Compound 25 for up to 24 weeks. Subjects were started at an initial dose of 10 mg per week subcutaneously. The dose was increased to 20 mg per week, and subsequently to 40 mg and to 80 mg per week as needed, based on tolerability and the pharmacodynamic marker TSAT. In addition, subcutaneous dosing schedules of 10 mg, 20 mg, 30, and 40 mg twice weekly (Day 1 and either Day 4 or Day 5 were tested). The majority of patients were administered doses of 20 mg per week or less. Subjects' safety and blood iron parameters (serum iron, serum ferritin, transferrin, and TSAT) were collected to monitor the pharmacodynamic effect of Compound 25. Effects on phlebotomy need and QoL data (36-Item Short Form Health Survey [SF-36], and Patient's Global Impression of Change [PGI-C]) were also be collected and tabulated.
Individual subject's dose and schedule were determined based on the pharmacodynamic (PD) marker TSAT measured at two time points following dosing: once at peak PD effect one day post dose and once at trough PD effect. […] The trough PD effect was the TSAT value measured 7 days after the Compound 25 dose (and before the next dose) for once weekly dosing or 7 days after the first dose in a week for twice weekly dosing. […] To facilitate dose escalation and the identification of a therapeutic dose, investigators assessed TSAT values on days subjects came to the clinic for any dose adjustments.
Methods: This single-arm, open-label, dose-finding phase 2 study investigated subcutaneous hepcidin mimetic (Compound 25) in patients (pts) with confirmed HH who were on documented stable phlebotomies (phl) for at least 6 months (mos) prior to treatment with a phl frequency of 0.25-1 per month. […] Endpoints included TSAT, serum iron, serum transferrin and serum ferritin, liver iron content (LIC) measured by FerriScan MRI, adverse events, and patient-reported outcomes on the Patient Global Impression of change (PGI-C) and Medical Outcome Study Questionnaire Short Form Health Survey (SF-36). […]

CCCCCCCCCCCCCCCC(=O)N[C@@H](CCC(=O)NCCCC[C@@H]1NC(=O)[C@H]([C@@H](C)CC)NC(=O)[C@@H](NC(=O)[C@@H]2CCCN2C(=O)[C@H](Cc2ccccc2)NC(=O)[C@H](Cc2c[nH]cn2)NC(=O)[C@@H](NC(=O)[C@H](CC(=O)O)NC(=O)CC(C)C)[C@@H](C)O)CSSC[C@@H](C(=O)N[C@@H](CCCCN)C(N)=O)NC(=O)CNC(=O)[C@H](CCCCN)NC(=O)[C@H](CO)NC(=O)[C@H](CCCNC(=N)N)NC(=O)[C@@H]2CCCN2C(=O)[C@H](CCC(=O)O)NC(=O)[C@H](Cc2ccccc2)NC1=O)C(=O)O [Compound 25, Isovaleric acid-DTHFPCI(K(isoGlu-Palm))FEPRSKGCK-NH2]
tolerability (HH patients, subcutaneous, up to 24 weeks): generally well tolerated | treatment-related adverse events, severity (all treatment-related adverse events): CTCAE grade 1 or 2 | hematological parameters (hematocrit, erythrocytes, leucocytes, platelets) (human, in vivo): no notable changes
